The subject of series [1] is human embryonic palatal mesenchymal (HEPM) cells. In words: Intracellular Ca store release in HEPM cells (Fura-2 ratio, PTI cuvette). The series is classed as cell-based. The note with it: for Mobilization of Ca from endoplasmic reticulum (ER) stores: HEPM cells loaded with Fura-2. The protocol: (§1) HEPM cells were loaded with 10 μM Fura-2 AM (Invitrogen, Carlsbad, Calif.) for 45 min at 37° C. and allowed to de-esterify for 15 min at 25° C. Cells were then harvested and re-suspended in balanced salt solution (BSS) containing (in mM): 140 NaCl, 2.8 KCl, 2 CaCl2, 2 MgCl2, 10 HEPES, pH 7.2. 2.5×10^6 cells were transferred into the cuvette system of a PTI spectrofluorometer (Photon Technology International, Princeton, N.J.) and the changes in [Ca]i were measured as changes in the ratio of Fura-2 fluorescence at excitation wavelength of 350 nm (F350) and 380 nm (F380), following exposure to various concentrations of thapsigargin, ionomycin or caffeine and ryanodine (C/R). For measurement in 0.5 mM EGTA, cells were centrifuged and re-suspended in BSS without CaCl2, and 0.5 mM EGTA was added immediately before recordings. Measurement of Ca in individual C2C12 myotubes were performed as described before (Shin, D. W. et al. 2003. J. Biol. Chem. 278:3286-3292). All experiments were conducted at 25±2° C.

In series [2] the test system is SOCE in C2C12 myotubes. In words: SOCE by Mn quenching of Fura-2 in C2C12 myotubes. Format: cell-based, mouse. The method, then: as §1, with “Measurement of Ca in individual C2C12 myotubes were performed as described before (Shin, D. W. et al. 2003. J. Biol. Chem. 278:3286-3292).” left out
(§2) Manganese (Mn^2+) is known to be able to permeate into cells via store-operated Ca channels (SOCs), but is impervious to surface membrane extrusion processes or SR uptake by Ca pumps. […] Briefly, to measure the Mn^2+ influx rate through the SOC machinery, thapsigargin (TG), or C/R, was applied to cultured cells or C2C12 myotubes to induce SR Ca depletion in 0 mM extracellular CaCa ([CaCa]o), then 0.5 mM Mn^2+ was added to the extracellular solution. The quenching of Fura-2 fluorescence by Mn^2+ was measured at the Ca-independent excitation wavelength of Fura-2 (360 nm). The decay of Fura-2 fluorescence upon Mn^2+ addition was expressed as percent decrease in Fura-2 fluorescence per unit time (the initial fluorescence is set equal to 100%). For all measurements of SOCE by Mn^2+ quenching, the maximally quenched fluorescence signal was established at the end of the experiment by lysing the cells with 1% Triton, and set equal to 0% fluorescence.

Series [3] relates to SOCE in NRP-154 cells. The note with it: 10 μM 2-APB, NRP-Con and NRP-Bax cells, TG-depleted. The protocol: The role of SOCE in Ca signaling in NRP-154 cells was examined. […] Following ER Ca depletion (200 s treatment), 0.5 mM MnCl2 was added into cuvettes containing 1×10^6 NRP-154 cells loaded with Fura-2. The quenching of Fura-2 fluorescence by the entry of Mn^2+ provided a quantitative assay of SOCE. Specifically, the slope of reduction of Fura-2 fluorescence with time reflected the degree of SOCE activation.

Series [4] relates to SOCE in HEPM cells. In words: SOCE by Mn quenching of Fura-2 in HEPM cells. Format: cell-based, human. The protocol: as §2
Series [5] in a line: Solubility of recombinant P311 expressed in E. coli. Format: physicochemical. As to conditions: E. coli lysate, a portion of the overexpressed protein. The method, then: Using standard recombinant DNA technology, the full-length P311 protein was cloned into a T7-based expression plasmid with a 6× His-tag at either the amino-terminus (pET15b, Novagen) or the carboxy-terminus (pET21b, Novagen) and as a fusion protein with glutathione S-transferase (GST) in plasmid pGEX-2T (Pharmacia). In addition, the untagged P311 was cloned into a T7-based bacterial expression vector pG5 (Alexander, P. et al. 1992. Biochemistry 31:3597-3603). The bacterial host is grown for 12-14 hours at room temperature or for 4 hours at 37° C. after induction with 0.2 mM IPTG. Robust expression for the amino-terminal His6-tagged P311 protein […] was observed; the amino-terminal His6-tagged P311 protein was soluble. The soluble fraction of the His6-tagged P311 protein in the E. coli lysate was purified over a Ni-NTA agarose column. The protein was eluted by 250 mM immidazole and further purified by […] chromatography (Source-15S, Pharmacia) and gel-filtration chromatography (Superdex-200, Pharmacia). The P311 protein was purified to greater than 80% homogeneity as judged on SDS-PAGE. The concentration of P311 was determined by spectroscopic measurement at 280 nm.

The target of series [6] is T1, Orai1 (Homo sapiens, UniProt Q96D31).
T1 construct: expressed in transfected cells; host or cells: CHO cells (transient transfection, lysate 36 h after transfection)
In words: Co-immunoprecipitation of P311 with Orai1 in CHO cell lysates. Format: binding. The note with it: CHO lysates expressing GFP-myc-Orai1; anti-myc and anti-P311. The method, then: (§3) Next, the interaction of P311 with SOCE molecular machinery was examined experimentally. The interaction of P311 with known components of SOCE, such as STIM1 and Orai1, was studied. A GFP-myc-Orai1 plasmid and the mammalian expression plasmid containing the human STIM1 cDNA (OriGene, Inc.) were used. The plasmids were transfected into CHO cells and 36 hours after transfection, total cell lysates from CHO cells transiently expressing GFP-myc-Orai1 were incubated with either a polyclonal antibody against P311, or an anti-myc monoclonal antibody, with normal rabbit IgG serving as the control. […] Similar results were obtained when co-IP assays were repeated using reversible cross-linker DSP and different detergents in cell lysis buffer, including Triton X-100, NP-40 and CHAPS.

Series [7] deals with T2, STIM1 (Homo sapiens, UniProt Q13586).
T2 construct: host or cells: CHO cells (transient transfection)
In words: Co-immunoprecipitation of P311 with STIM1 in CHO cell lysates. Format: binding. The note with it: anti-P311 and anti-STIM1. The method, then:
as §3

T1 sequence (Q96D31 whole entry, species assumed): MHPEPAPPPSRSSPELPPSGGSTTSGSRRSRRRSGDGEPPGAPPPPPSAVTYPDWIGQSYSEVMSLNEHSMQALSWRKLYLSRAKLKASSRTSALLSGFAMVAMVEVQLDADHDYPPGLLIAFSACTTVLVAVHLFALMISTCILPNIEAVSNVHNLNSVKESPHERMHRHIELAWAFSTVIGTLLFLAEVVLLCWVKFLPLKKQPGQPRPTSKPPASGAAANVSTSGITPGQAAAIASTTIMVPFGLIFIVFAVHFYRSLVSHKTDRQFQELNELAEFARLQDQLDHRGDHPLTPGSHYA
T2 sequence (Q13586 23-685): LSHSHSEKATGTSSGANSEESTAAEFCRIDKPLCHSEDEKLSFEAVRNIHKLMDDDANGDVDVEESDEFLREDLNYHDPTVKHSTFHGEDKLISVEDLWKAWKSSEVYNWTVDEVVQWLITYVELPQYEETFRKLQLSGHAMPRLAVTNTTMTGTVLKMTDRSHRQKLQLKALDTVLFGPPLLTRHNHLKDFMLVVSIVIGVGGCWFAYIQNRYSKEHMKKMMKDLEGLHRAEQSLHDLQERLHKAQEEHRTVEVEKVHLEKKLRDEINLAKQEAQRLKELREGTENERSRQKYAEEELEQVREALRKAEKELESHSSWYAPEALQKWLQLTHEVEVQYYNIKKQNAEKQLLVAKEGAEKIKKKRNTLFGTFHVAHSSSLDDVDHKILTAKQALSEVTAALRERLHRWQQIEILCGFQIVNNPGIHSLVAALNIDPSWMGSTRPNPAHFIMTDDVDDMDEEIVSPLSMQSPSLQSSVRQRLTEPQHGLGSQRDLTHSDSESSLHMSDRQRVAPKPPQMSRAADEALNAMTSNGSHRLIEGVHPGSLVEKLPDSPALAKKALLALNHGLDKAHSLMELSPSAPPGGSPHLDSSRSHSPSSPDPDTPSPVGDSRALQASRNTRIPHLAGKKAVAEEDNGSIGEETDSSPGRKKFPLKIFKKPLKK

Turning to `Nc1ncnc2c1ncn2[C@@H]1O[C@H](COP(=O)(O)OP(=O)(O)OP(=O)(O)O)[C@@H](O)[C@H]1O` [ATP, adenosine triphosphate], the “Ca release on ATP stimulation in LPS-treated cells” value in series [1] (ATP 1 or 3 mM, LPS-treated HEPM cells) is “no effect”. The “Mobilization of Ca from endoplasmic reticulum (ER) stores” value (from here on “Mobilization of Ca”) in series [1] was “not responsive”.
In the case of `NCCOB(c1ccccc1)c1ccccc1` [2-APB, 2-aminoethoxydiphenyl borate], the “Effect on PTZ-triggered Mn quenching of Fura-2 fluorescence” value in series [2] (C2C12 myotubes) is listed as “inhibited”. Further, in series [2] (C2C12 myotubes, 2-APB 20 μM), the “Effect on TG-initiated Mn entry through SOCE” value was “blocked”. Besides, in series [3], the “Effect on SOCE (Mn quenching of Fura-2)” value is “inhibited SOCE”.
In the case of `[K+]` [potassium], the “Mobilization of Ca” value in series [1] is recorded as “not responsive”.
On to `C[C@H](CCC(=O)O)C[C@H](C)C[C@H](C)C(=O)/C=C(\O)[C@H](C)C[C@H](C)C/C=C/[C@@H](C)[C@@H](O)[C@@H](C)[C@@H](O)C[C@@H]1CC[C@@](C)([C@H]2CC[C@@](C)([C@@H](C)O)O2)O1` [ionomycin], for which the “Mobilization of Ca” value in series [1] was “reveals a large store of Ca available for release”. Besides, the “Activation of SOCE following Ca store depletion” value in series [4] is “rapid activation of SOCE”.
Take `C1CCc2nnnn2CC1` [PTZ, pentylenetetrazol]: the “Effect on SOCE in shRNA-treated myotubes” value in series [2] (C2C12 myotubes transfected with shRNA against P311) is listed as “absent”. Further, the “SR Ca filling status” value in series [2] (C2C12 myotubes treated with PTZ) is “without affecting the SR Ca filling status”. In series [2] (C2C12 myotubes, 20 mM PTZ, no SR Ca depletion), the “Activation of SOCE (Mn entry)” value is recorded as “induced the activation of SOCE”.
Regarding `C/C=C(/C)C(=O)O[C@H]1C(C)=C2[C@H]([C@@H]1OC(=O)CCCCCCC)[C@@](C)(OC(C)=O)C[C@H](OC(=O)CCC)[C@@]1(O)[C@H]2OC(=O)[C@@]1(C)O` [thapsigargin], the “Activation of SOCE following Ca store depletion” value in series [4] is given as “rapid activation of SOCE”.

B1: His6-tagged P311: full-length P311 with amino-terminal 6x His-tag expressed in E. coli (protein, UniProt Q16612 1-68, looked up)
chain: MVYYPELFVWVSQEPFPNKDMEGRLPKGRLPVPKEVNRKKNDETNAASLTPLGSSELRSPRISYLHFF
modifications: full-length N-terminal His6 tag
notes: full-length P311 with amino-terminal 6x His-tag expressed in E. coli
As for B1, the “Solubility of overexpressed protein” value in series [5] was “soluble”.

B2: P311: 68 amino acid, 8 kDa cytosolic protein (SEQ ID NO: 1 human, SEQ ID NO: 10 mouse) regulating SOCE (protein)
chain: MVYYPGLLVWVSQEPFLYKEMEGSLTKGRLPVPKEVNRKKLEEARAASMTPPGSHELCFPNISYL
For the molecule B2, the “Co-immunoprecipitation with Orai1” value in series [6] was “physical interaction between P311 and Orai1”. For the same molecule, the “Co-immunoprecipitation with STIM1” value in series [7] is on record as “could not immunoprecipitation”.

For the origin of these results see patent US8071533B2, “Compositions and methods for modulating store-operated calcium entry” (University of Medicine and Dentistry of New Jersey, priority 2006, dated 2011).
